Data: patent US8076487B2, “Pyridone derivative and herbicide” (Kumiai Chemical Industry Co., Ltd., priority 2006, dated 2011)

Tests used:
Format in all cases: in vivo
[1] = system: slender amaranth (Amaranthus viridis L.); test: Test Example 3: herbicidal effect by application to upland field (foliage treatment); conditions: foliage treatment, 1,000 g active ingredient per 1 hectare, 14th day after application, greenhouse
Method in brief: (§1)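 Foliar spray on two-week-old greenhouse weeds in field soil: wettable powder formulation diluted in water, applied at 1,000 L/ha to give 1,000 g a.i./ha. Damage rated by a fixed scoring standard on day 14 after application.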

[2] = system: velvetleaf (Abutilon theophrasti medicus); test: as above; conditions: foliage treatment, 1,000 g active ingredient per 1 hectare, 14th day after application, greenhouse
Method in brief: as §1

[3] = system: barnyardgrass (Echinochloa crus-galli (L.) P. Beauv. var. crus-galli); test: as above; conditions: foliage treatment, 1,000 g active ingredient per 1 hectare, 14th day after application, greenhouse
Method in brief: as §1

[4] = system: green foxtail (Setaria viridis (L.) P. Beauv.); test: as above; conditions: foliage treatment, 1,000 g active ingredient per 1 hectare, 14th day after application, greenhouse
Method in brief: as §1

[5] = system: Japanese bulrush (Scirpus juncoides Roxb.); test: Test Example 1: herbicidal effect by soil application to paddy field; conditions: paddy field soil application; active ingredient 1,000 g per 1 hectare; wettable powder added dropwise to water surface the day after sowing; examined on the 21st day after application
Method in brief: (§2)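 Under greenhouse conditions, seeds sown on puddled paddy soil in 100 cm2 pots under 3 cm of standing water received the test compound; injury was assessed with a standard scoring scheme three weeks (day 21) after treatment.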

[6] = system: early watergrass (Echinochloa oryzicola Vasing); test: as above; conditions: paddy field soil application; active ingredient 1,000 g per 1 hectare; wettable powder added dropwise to water surface the day after sowing; examined on the 21st day after application
Method in brief: as §2

[7] = system: heartshape false pickerelweed (Monochoria vaginalis (Burm.f.) C.Presl); test: as above; conditions: paddy field soil application; active ingredient 1,000 g per 1 hectare; wettable powder added dropwise to water surface the day after sowing; examined on the 21st day after application
Method in brief: as §2

[8] = system: slender amaranth (Amaranthus viridis L.); test: Test Example 2: herbicidal effect by soil application to upland field; conditions: soil surface spray, upland field soil, 1,000 g active ingredient per hectare, 21st day after application
Method in brief: (§3)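 Seeds were sown in field soil, covered, and the soil surface sprayed with a water-diluted wettable powder at 1,000 g active ingredient per hectare in 1,000 L/ha. Plants grew in a greenhouse, and herbicidal effect was rated against a standard scale 21 days after application.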

[9] = system: velvetleaf (Abutilon theophrasti medicus); test: as above; conditions: soil surface spray, upland field soil, 1,000 g active ingredient per hectare, 21st day after application
Method in brief: as §3

[10] = system: barnyardgrass (Echinochloa crus-galli (L.) P. Beauv. var. crus-galli); test: as above; conditions: soil surface spray, upland field soil, 1,000 g active ingredient per hectare, 21st day after application
Method in brief: as §3

[11] = system: green foxtail (Setaria viridis (L.) P. Beauv.); test: as above; conditions: soil surface spray, upland field soil, 1,000 g active ingredient per hectare, 21st day after application
Method in brief: as §3

CCCCCCn1c(C(F)(F)F)ccc(C(=O)C2=C(O)C3CCC(C3)C2=O)c1=O (stereo not shown) [III-10]
herbicidal effect, Slender Amaranth [1]: 4 (70 to less than 90% of herbicidal effect and crop phytotoxicity)
herbicidal effect, Velvetleaf [2]: 5 (90% or more of herbicidal effect and crop phytotoxicity)
herbicidal effect, Barnyardgrass [3]: 5 (90% or more of herbicidal effect and crop phytotoxicity)
herbicidal effect, Green Foxtail [4]: 5 (90% or more of herbicidal effect and crop phytotoxicity)
herbicidal effect, Scirpus juncoides Roxb. [5]: 5 (90% or more of herbicidal effect and crop phytotoxicity)
herbicidal effect, Echinochloa oryzicola Vasing [6]: 5 (90% or more of herbicidal effect and crop phytotoxicity)
herbicidal effect, Monochoria vaginalis (Burm. f.) C. Presl [7]: 5 (90% or more of herbicidal effect and crop phytotoxicity)
herbicidal effect (index), Slender Amaranth [8]: 5 (90% or more of herbicidal effect and crop phytotoxicity)
herbicidal effect (index), Velvetleaf [9]: 5 (90% or more of herbicidal effect and crop phytotoxicity)
herbicidal effect (index), Barnyardgrass [10]: 5 (90% or more of herbicidal effect and crop phytotoxicity)
herbicidal effect (index), Green Foxtail [11]: 5 (90% or more of herbicidal effect and crop phytotoxicity)

O=C(C1=C(O)C2CCC(C2)C1=O)c1ccc(C(F)(F)F)n(C2CCCC2)c1=O (stereo not shown) [III-11]
herbicidal effect, Slender Amaranth [1]: 5 (90% or more of herbicidal effect and crop phytotoxicity)
herbicidal effect, Velvetleaf [2]: 5 (90% or more of herbicidal effect and crop phytotoxicity)
herbicidal effect, Barnyardgrass [3]: 5 (90% or more of herbicidal effect and crop phytotoxicity)
herbicidal effect, Green Foxtail [4]: 5 (90% or more of herbicidal effect and crop phytotoxicity)
herbicidal effect, Scirpus juncoides Roxb. [5]: 5 (90% or more of herbicidal effect and crop phytotoxicity)
herbicidal effect, Echinochloa oryzicola Vasing [6]: 5 (90% or more of herbicidal effect and crop phytotoxicity)
herbicidal effect, Monochoria vaginalis (Burm. f.) C. Presl [7]: 5 (90% or more of herbicidal effect and crop phytotoxicity)
herbicidal effect (index), Slender Amaranth [8]: 5 (90% or more of herbicidal effect and crop phytotoxicity)
herbicidal effect (index), Velvetleaf [9]: 5 (90% or more of herbicidal effect and crop phytotoxicity)
herbicidal effect (index), Barnyardgrass [10]: 4 (70 to less than 90% of herbicidal effect and crop phytotoxicity)
herbicidal effect (index), Green Foxtail [11]: 4 (70 to less than 90% of herbicidal effect and crop phytotoxicity)

Cn1c(C(F)(F)F)ccc(C(=O)C2=C(Sc3ccccc3)C3CCC(C3)C2=O)c1=O (stereo not shown) [III-14]
herbicidal effect, Slender Amaranth [1]: 5 (90% or more of herbicidal effect and crop phytotoxicity)
herbicidal effect, Velvetleaf [2]: 5 (90% or more of herbicidal effect and crop phytotoxicity)
herbicidal effect, Barnyardgrass [3]: 5 (90% or more of herbicidal effect and crop phytotoxicity)
herbicidal effect, Green Foxtail [4]: 5 (90% or more of herbicidal effect and crop phytotoxicity)
herbicidal effect, Scirpus juncoides Roxb. [5]: 5 (90% or more of herbicidal effect and crop phytotoxicity)
herbicidal effect, Echinochloa oryzicola Vasing [6]: 5 (90% or more of herbicidal effect and crop phytotoxicity)
herbicidal effect, Monochoria vaginalis (Burm. f.) C. Presl [7]: 5 (90% or more of herbicidal effect and crop phytotoxicity)
herbicidal effect (index), Slender Amaranth [8]: 5 (90% or more of herbicidal effect and crop phytotoxicity)
herbicidal effect (index), Velvetleaf [9]: 5 (90% or more of herbicidal effect and crop phytotoxicity)
herbicidal effect (index), Barnyardgrass [10]: 4 (70 to less than 90% of herbicidal effect and crop phytotoxicity)
herbicidal effect (index), Green Foxtail [11]: 4 (70 to less than 90% of herbicidal effect and crop phytotoxicity)

CCn1c(C(F)(F)F)ccc(C(=O)C2=C(Sc3ccccc3)C3CCC(C3)C2=O)c1=O (stereo not shown) [III-15]
herbicidal effect, Slender Amaranth [1]: 5 (90% or more of herbicidal effect and crop phytotoxicity)
herbicidal effect, Velvetleaf [2]: 5 (90% or more of herbicidal effect and crop phytotoxicity)
herbicidal effect, Barnyardgrass [3]: 5 (90% or more of herbicidal effect and crop phytotoxicity)
herbicidal effect, Green Foxtail [4]: 5 (90% or more of herbicidal effect and crop phytotoxicity)
herbicidal effect, Scirpus juncoides Roxb. [5]: 5 (90% or more of herbicidal effect and crop phytotoxicity)
herbicidal effect, Echinochloa oryzicola Vasing [6]: 5 (90% or more of herbicidal effect and crop phytotoxicity)
herbicidal effect, Monochoria vaginalis (Burm. f.) C. Presl [7]: 5 (90% or more of herbicidal effect and crop phytotoxicity)
herbicidal effect (index), Slender Amaranth [8]: 5 (90% or more of herbicidal effect and crop phytotoxicity)
herbicidal effect (index), Velvetleaf [9]: 5 (90% or more of herbicidal effect and crop phytotoxicity)
herbicidal effect (index), Barnyardgrass [10]: 5 (90% or more of herbicidal effect and crop phytotoxicity)
herbicidal effect (index), Green Foxtail [11]: 5 (90% or more of herbicidal effect and crop phytotoxicity)

CCCn1c(C(F)(F)F)c(C)cc(C(=O)C2=C(O)C3CCC(C3)C2=O)c1=O (stereo not shown) [III-18]
herbicidal effect, Slender Amaranth [1]: 5 (90% or more of herbicidal effect and crop phytotoxicity)
herbicidal effect, Velvetleaf [2]: 5 (90% or more of herbicidal effect and crop phytotoxicity)
herbicidal effect, Barnyardgrass [3]: 5 (90% or more of herbicidal effect and crop phytotoxicity)
herbicidal effect, Green Foxtail [4]: 5 (90% or more of herbicidal effect and crop phytotoxicity)
herbicidal effect, Scirpus juncoides Roxb. [5]: 5 (90% or more of herbicidal effect and crop phytotoxicity)
herbicidal effect, Echinochloa oryzicola Vasing [6]: 5 (90% or more of herbicidal effect and crop phytotoxicity)
herbicidal effect, Monochoria vaginalis (Burm. f.) C. Presl [7]: 5 (90% or more of herbicidal effect and crop phytotoxicity)
herbicidal effect (index), Slender Amaranth [8]: 5 (90% or more of herbicidal effect and crop phytotoxicity)
herbicidal effect (index), Velvetleaf [9]: 5 (90% or more of herbicidal effect and crop phytotoxicity)
herbicidal effect (index), Barnyardgrass [10]: 5 (90% or more of herbicidal effect and crop phytotoxicity)
herbicidal effect (index), Green Foxtail [11]: 3 (50 to less than 70% of herbicidal effect and crop phytotoxicity)

COCCn1c(C(F)(F)F)ccc(C(=O)C2=C(O)C3CCC(C3)C2=O)c1=O (stereo not shown) [III-19]
herbicidal effect, Slender Amaranth [1]: 5 (90% or more of herbicidal effect and crop phytotoxicity)
herbicidal effect, Velvetleaf [2]: 5 (90% or more of herbicidal effect and crop phytotoxicity)
herbicidal effect, Barnyardgrass [3]: 5 (90% or more of herbicidal effect and crop phytotoxicity)
herbicidal effect, Green Foxtail [4]: 5 (90% or more of herbicidal effect and crop phytotoxicity)
herbicidal effect, Scirpus juncoides Roxb. [5]: 5 (90% or more of herbicidal effect and crop phytotoxicity)
herbicidal effect, Echinochloa oryzicola Vasing [6]: 5 (90% or more of herbicidal effect and crop phytotoxicity)
herbicidal effect, Monochoria vaginalis (Burm. f.) C. Presl [7]: 5 (90% or more of herbicidal effect and crop phytotoxicity)
herbicidal effect (index), Slender Amaranth [8]: 5 (90% or more of herbicidal effect and crop phytotoxicity)
herbicidal effect (index), Velvetleaf [9]: 5 (90% or more of herbicidal effect and crop phytotoxicity)
herbicidal effect (index), Barnyardgrass [10]: 5 (90% or more of herbicidal effect and crop phytotoxicity)
herbicidal effect (index), Green Foxtail [11]: 5 (90% or more of herbicidal effect and crop phytotoxicity)

CCOCCn1c(C(F)(F)F)ccc(C(=O)C2=C(O)C3CCC(C3)C2=O)c1=O (stereo not shown) [III-20]
herbicidal effect, Slender Amaranth [1]: 5 (90% or more of herbicidal effect and crop phytotoxicity)
herbicidal effect, Velvetleaf [2]: 5 (90% or more of herbicidal effect and crop phytotoxicity)
herbicidal effect, Barnyardgrass [3]: 5 (90% or more of herbicidal effect and crop phytotoxicity)
herbicidal effect, Green Foxtail [4]: 5 (90% or more of herbicidal effect and crop phytotoxicity)
herbicidal effect, Scirpus juncoides Roxb. [5]: 5 (90% or more of herbicidal effect and crop phytotoxicity)
herbicidal effect, Echinochloa oryzicola Vasing [6]: 5 (90% or more of herbicidal effect and crop phytotoxicity)
herbicidal effect, Monochoria vaginalis (Burm. f.) C. Presl [7]: 5 (90% or more of herbicidal effect and crop phytotoxicity)
herbicidal effect (index), Slender Amaranth [8]: 5 (90% or more of herbicidal effect and crop phytotoxicity)
herbicidal effect (index), Velvetleaf [9]: 5 (90% or more of herbicidal effect and crop phytotoxicity)
herbicidal effect (index), Barnyardgrass [10]: 5 (90% or more of herbicidal effect and crop phytotoxicity)
herbicidal effect (index), Green Foxtail [11]: 5 (90% or more of herbicidal effect and crop phytotoxicity)

COCC(C)n1c(C(F)(F)F)ccc(C(=O)C2=C(O)C3CCC(C3)C2=O)c1=O (stereo not shown) [III-21]
herbicidal effect, Slender Amaranth [1]: 5 (90% or more of herbicidal effect and crop phytotoxicity)
herbicidal effect, Velvetleaf [2]: 5 (90% or more of herbicidal effect and crop phytotoxicity)
herbicidal effect, Barnyardgrass [3]: 5 (90% or more of herbicidal effect and crop phytotoxicity)
herbicidal effect, Green Foxtail [4]: 5 (90% or more of herbicidal effect and crop phytotoxicity)
herbicidal effect, Scirpus juncoides Roxb. [5]: 5 (90% or more of herbicidal effect and crop phytotoxicity)
herbicidal effect, Echinochloa oryzicola Vasing [6]: 5 (90% or more of herbicidal effect and crop phytotoxicity)
herbicidal effect, Monochoria vaginalis (Burm. f.) C. Presl [7]: 5 (90% or more of herbicidal effect and crop phytotoxicity)
herbicidal effect (index), Slender Amaranth [8]: 5 (90% or more of herbicidal effect and crop phytotoxicity)
herbicidal effect (index), Velvetleaf [9]: 5 (90% or more of herbicidal effect and crop phytotoxicity)
herbicidal effect (index), Barnyardgrass [10]: 5 (90% or more of herbicidal effect and crop phytotoxicity)
herbicidal effect (index), Green Foxtail [11]: 5 (90% or more of herbicidal effect and crop phytotoxicity)
